From ChEMBL document CHEMBL4431386, “Potent selective monoamine oxidase B inhibition by maackiain, a pterocarpan from the roots of Sophora flavescens” (Bioorg Med Chem Lett, 2016) come the findings set out here.

A value given as a limit tells only on which side of the number the result lay.

The target of data set [1] is T1, Amine oxidase [flavin-containing] B (Mus musculus, UniProt Q8BW75).
T1 sequence (Q8BW75 whole entry): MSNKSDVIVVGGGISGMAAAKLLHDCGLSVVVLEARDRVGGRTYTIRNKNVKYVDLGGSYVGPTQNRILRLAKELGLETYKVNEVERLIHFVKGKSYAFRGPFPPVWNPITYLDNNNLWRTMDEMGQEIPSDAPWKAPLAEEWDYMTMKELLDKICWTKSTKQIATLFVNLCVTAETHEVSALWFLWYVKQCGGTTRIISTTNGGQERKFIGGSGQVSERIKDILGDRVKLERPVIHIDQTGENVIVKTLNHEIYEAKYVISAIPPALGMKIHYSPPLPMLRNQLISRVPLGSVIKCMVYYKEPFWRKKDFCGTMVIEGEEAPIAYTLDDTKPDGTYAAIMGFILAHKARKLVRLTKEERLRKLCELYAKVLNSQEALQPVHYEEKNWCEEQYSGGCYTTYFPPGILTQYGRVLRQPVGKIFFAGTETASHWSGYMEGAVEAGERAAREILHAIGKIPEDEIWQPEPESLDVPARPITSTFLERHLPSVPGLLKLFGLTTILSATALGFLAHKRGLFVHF
Description: Inhibition of mouse MAO-B preincubated for 15 mins followed by addition of kynuramine as substrate measured after 30 mins by fluorometric analysis.

For data set [2], the target named is T2, Amine oxidase [flavin-containing] A (Homo sapiens, UniProt P21397).
T2 sequence (P21397 whole entry): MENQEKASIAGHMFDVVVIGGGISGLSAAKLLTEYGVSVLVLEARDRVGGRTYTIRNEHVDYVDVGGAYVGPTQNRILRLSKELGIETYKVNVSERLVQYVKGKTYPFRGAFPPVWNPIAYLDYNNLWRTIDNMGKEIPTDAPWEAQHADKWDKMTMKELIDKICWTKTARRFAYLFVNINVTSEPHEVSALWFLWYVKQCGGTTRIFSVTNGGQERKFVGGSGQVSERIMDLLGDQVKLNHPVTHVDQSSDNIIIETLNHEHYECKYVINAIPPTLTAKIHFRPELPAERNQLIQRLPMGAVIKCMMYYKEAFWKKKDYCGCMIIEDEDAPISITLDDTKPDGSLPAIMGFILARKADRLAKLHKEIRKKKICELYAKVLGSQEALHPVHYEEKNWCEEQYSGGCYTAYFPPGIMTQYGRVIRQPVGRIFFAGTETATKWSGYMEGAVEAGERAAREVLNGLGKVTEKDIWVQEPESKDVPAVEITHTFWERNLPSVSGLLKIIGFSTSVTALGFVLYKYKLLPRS
Description: Inhibition of recombinant human MAO-A expressed in baculovirus infected BTI insect cells preincubated for 10 mins followed by addition of kynuramine as substrate.

For data set [3], the target named is T3, Amine oxidase [flavin-containing] B (Homo sapiens, UniProt P27338).
T3 sequence (P27338 whole entry): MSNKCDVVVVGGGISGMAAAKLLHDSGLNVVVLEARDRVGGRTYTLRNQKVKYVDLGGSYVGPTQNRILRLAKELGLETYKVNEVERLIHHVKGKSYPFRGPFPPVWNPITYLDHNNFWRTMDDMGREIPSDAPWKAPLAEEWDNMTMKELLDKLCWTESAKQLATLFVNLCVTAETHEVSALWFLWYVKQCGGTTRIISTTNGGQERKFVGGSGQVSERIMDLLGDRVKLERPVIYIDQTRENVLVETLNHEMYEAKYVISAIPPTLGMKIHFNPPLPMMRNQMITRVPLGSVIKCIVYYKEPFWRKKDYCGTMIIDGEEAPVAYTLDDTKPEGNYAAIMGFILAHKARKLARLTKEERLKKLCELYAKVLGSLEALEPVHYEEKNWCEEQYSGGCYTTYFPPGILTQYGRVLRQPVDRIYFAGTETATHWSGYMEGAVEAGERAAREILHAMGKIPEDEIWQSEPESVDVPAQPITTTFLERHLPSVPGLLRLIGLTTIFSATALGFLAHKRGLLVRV
Description: Inhibition of recombinant human MAO-B expressed in baculovirus infected BTI insect cells preincubated for 10 mins followed by addition of benzylamine as substrate. The format is cell-based.

The species entered for data set [4] is Homo sapiens. Description: Selectivity index, ratio of IC50 for recombinant human MAO-A expressed in baculovirus infected BTI insect cells to IC50 for recombinant human MAO-B expressed in baculovirus infected BTI insect cells.
In data set [5] the target is T3, Amine oxidase [flavin-containing] B. Description: Reversible inhibition of recombinant human MAO-B expressed in baculovirus infected BTI insect cells assessed as residual activity at 20 uM preincubated for 10 mins followed by addition of 2 mM of benzylamine as substrate and further addition of 2 mM of benzylamine at the end of first reaction. As to conditions: read-out: Activity; call rule not given here.

The target is the same in data set [6]. Description: Time-dependent inhibition of recombinant human MAO-B expressed in baculovirus infected BTI insect cells at 20 uM pretreated with compound up to 30 mins followed by addition of benzylamine as substrate.
Data set [7] has the same target. Description: Inhibition of recombinant human MAO-B expressed in baculovirus infected BTI insect cells assessed as residual activity at 20 uM preincubated for 10 mins followed by addition of 2 mM of benzylamine as substrate. As to conditions: read-out: Activity.
The target in data set [8] is T4, Amine oxidase [flavin-containing] A (Mus musculus, UniProt Q64133).
T4 sequence (Q64133 whole entry): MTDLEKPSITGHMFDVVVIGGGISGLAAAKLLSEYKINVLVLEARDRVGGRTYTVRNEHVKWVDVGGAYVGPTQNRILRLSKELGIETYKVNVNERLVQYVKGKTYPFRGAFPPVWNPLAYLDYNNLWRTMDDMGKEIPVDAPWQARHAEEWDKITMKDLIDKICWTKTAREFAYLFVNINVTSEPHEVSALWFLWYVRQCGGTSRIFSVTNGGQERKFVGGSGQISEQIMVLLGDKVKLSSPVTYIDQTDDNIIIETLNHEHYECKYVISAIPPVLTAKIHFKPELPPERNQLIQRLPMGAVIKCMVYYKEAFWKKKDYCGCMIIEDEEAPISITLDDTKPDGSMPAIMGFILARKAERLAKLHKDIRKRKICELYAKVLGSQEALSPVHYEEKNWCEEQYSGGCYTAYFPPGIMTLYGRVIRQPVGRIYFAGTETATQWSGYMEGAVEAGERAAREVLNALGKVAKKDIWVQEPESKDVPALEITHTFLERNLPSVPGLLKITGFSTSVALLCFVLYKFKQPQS
Description: Inhibition of mouse MAO-A preincubated for 15 mins followed by addition of kynuramine as substrate measured after 30 mins by fluorometric analysis.

The target of data set [9] is T3, Amine oxidase [flavin-containing] B. Description: Reversible inhibition of recombinant human MAO-B expressed in baculovirus infected BTI insect cells assessed as residual activity at 8 uM preincubated for 10 mins followed by addition of 2 mM of benzylamine as substrate and further addition of 2 mM of benzylamine at the end of first reaction. The conditions noted are these: read-out: Activity.

For data set [10] the target is unchanged. Description: Inhibition of recombinant human MAO-B expressed in baculovirus infected BTI insect cells assessed as residual activity at 8 uM preincubated for 10 mins followed by addition of 2 mM of benzylamine as substrate. As to conditions: read-out: Activity.
For data set [11] the target is unchanged. Description: Time-dependent inhibition of recombinant human MAO-B expressed in baculovirus infected BTI insect cells at 8 uM pretreated with compound up to 30 mins followed by addition of benzylamine as substrate.
The target is the same in data set [12]. Description: Competitive inhibition of recombinant human MAO-B expressed in baculovirus infected BTI insect cells using benzylamine as substrate by Lineweaver-Burk plot analysis.
Data set [13] has the same target. Description: Reversible inhibition of recombinant human MAO-B expressed in baculovirus infected BTI insect cells assessed as residual activity at 1.5 uM preincubated for 10 mins followed by addition of 2 mM of benzylamine as substrate and further addition of 2 mM of benzylamine at the end of first reaction. As to conditions: read-out: Activity.
Data set [14] has the same target. Description: Inhibition of recombinant human MAO-B expressed in baculovirus infected BTI insect cells assessed as residual activity at 1.5 uM preincubated for 10 mins followed by addition of 2 mM of benzylamine as substrate. The conditions noted are these: read-out: Activity.
Data set [15] has the same target. Description: Time-dependent inhibition of recombinant human MAO-B expressed in baculovirus infected BTI insect cells at 1.5 uM pretreated with compound up to 30 mins followed by addition of benzylamine as substrate.
The target of data set [16] is T1, Amine oxidase [flavin-containing] B. Description: Competitive inhibition of mouse brain mitochondrial MAO-B using kynuramine as substrate by Lineweaver-Burk plot analysis.

For `C=C(C)[C@H](O)CC/C(C)=C/COc1ccc2ccc(=O)oc2c1`, in data set [1], half-maximal inhibition (IC50) required 0.5 µM.
As to `CC(C)=CCC/C(C)=C/COc1ccc2ccc(=O)oc2c1`, it took 0.6 µM to reach half-maximal inhibition in [1] (IC50).
As to `CC(C)=CCc1c(O)cc(O)c2c1O[C@H](c1ccc(O)cc1)CC2=O`, the 50% inhibitory concentration (IC50) (commonly the concentration that gives 50% inhibition) in data set [2] was 38.8 µM; in [3], more than 100 µM. Further, in data set [4], the Ratio IC50 was less than 0.39.
Take `COc1ccc2c(c1O)OC[C@H]1c3cc4c(cc3O[C@@H]21)OCO4`: the values for the activity at 20 µM in data set [5] and in data set [7] were 54.9% and 26.3%, respectively. In addition, the IC50 in [2] was 20.3 µM; in data set [3], 10.3 µM. Moreover, the TDI result in data set [6] is reported as “Not Active”. Also, in [4], the Ratio IC50 was 2.
`COc1ccc(-c2coc3cc(O)c(CC=C(C)C)c(O)c3c2=O)cc1` returned an IC50 in data set [1] of 0.8 µM.
On to `CC(C)=CCc1c(O)c(CC=C(C)C)c2c(c1O)C(=O)C[C@@H](c1ccc(O)cc1O)O2`, for which the IC50 in [2] and in data set [3] was more than 100 µM throughout.
Take `COc1ccc(-c2coc3cc(O)ccc3c2=O)cc1` [FORMONONETIN]: the IC50 in data set [2] is 31.2 µM; in [3], 25.8 µM; in [8] it was 21.2 µM; in data set [1], 11 µM. In addition, the Ratio IC50 in data set [4] is 1.2.
Consider `O=c1c(-c2ccc(O)cc2)coc2cc(O)cc(O)c12` [GENISTEIN], for which the figures for the activity at 8 µM in [9] and in data set [10] were 59.5% and 25.3%, respectively. For the same molecule, the TDI result in data set [11] was “Not Active”.
Regarding `Oc1ccc2c(c1)OC[C@H]1c3cc4c(cc3O[C@@H]21)OCO4` [MAACKIAIN], the inhibition constant (Ki) (in general, the equilibrium dissociation constant of an inhibitor or competing ligand from its target) in data set [12] turned out to be 0.054 µM. The concentration for half-maximal inhibition (IC50) was determined as 85.8 µM in [2] and 0.68 µM in [3]. Further, the activity at 1.5 µM amounted to 66% in data set [13] and 28.7% in data set [14]. Also, the Ratio IC50 in data set [4] was determined as 126. The TDI entry in data set [15] is listed as “Not Active”.
Molecule `COC(=O)/C=C/C=C/c1ccc2c(c1)OCO2` [METHYL PIPERATE] yielded a Ki in [16] of 1.3 µM.
